Laboratory results from patent EP1209147A1, “CARBOXYLIC ACID DERIVATIVES AND ADHESION MOLECULE INHIBITORS CONTAINING THE SAME AS THE ACTIVE INGREDIENT” (TORAY INDUSTRIES, INC., priority 1999, dated 2001).
Like-named read-outs stand apart in the source and are kept apart here.

Biological target: VLA-4-IgG chimeric protein (Homo sapiens, UniProt P05556+P13612)
Test: Inhibition of binding between CS-1 peptide and VLA-4-IgG chimeric protein
Description: The adhesion-inhibition activity of the compound of the present invention against VLA-4 may be examined by using an adhesion assay system in which the adhesion between VLA-4-expressing cells such as Ramos cells and Jurkat cells, and fibronectin or a fragment thereof, e.g., a peptide containing CS-1 sequence (Gly Pro Glu Ile Leu Asp Val Pro Ser Thr) (hereinafter referred to as "CS-1 peptide") immobilized on an immunoplate is measured. Alternatively, a binding assay system in which the binding of the VLA-4 protein to the fibronectin or a fragment thereof such as CS-1 peptide immobilized on an immunoplate is measured may be employed. In the present invention, the inhibition assay of the compound is preferably measured by a binding assay system which measures the binding between a chimeric protein of VLA-4 and immunoglobulin (VLA-4-IgG chimeric protein) and CS-1 peptide (Japanese patent application No. H9-234544), although the method of measuring the inhibition activity is not restricted to this method. The term "VLA-4-IgG chimeric protein" herein means the heterodimer composite molecule in which a chimeric protein between α4 of VLA-4 and immunoglobulin (hereinafter referred to as "VLAα4·IgG chimeric protein), and a chimeric protein between β1 of VLA-4 and immunoglobulin (hereinafter referred to as "VLAβ1·IgG chimeric protein) are associated. As the immunoglobulin, although heavy chain or light chain of IgG, IgM or the like may be employed, in the present invention, IgG1 heavy chain is used. When testing the inhibition activity of the compound, it is preferred to preliminarily mix the VLA-4-IgG chimeric protein and the test compound.
Effects of Compounds for Inhibition of Binding Between CS-1 Peptide and VLA-4-IgG
A conjugate between a peptide (Gys Leu His Gly Pro Glu Ile Leu Asp Val Pro Ser Thr) containing CS-1 sequence and rabbit IgG (Sigma) was prepared by the reported method (Humphries, M.J. et al. J. Biol.Chem., 262, 6886-6892 (1987)). The obtained conjugate was diluted with phosphate buffer (hereinafter referred to as "PBS(-)", NISSUI) and the resulting solution was placed in wells of a 96-well immunoplate (NUNC) in an amount of 100 µl/well, followed by leaving the solution to stand at 4°C for 16 hours to immobilize the conjugate.
Then each well was washed twice with PBS(-), and a PBS solution containing 1% BSA heat-treated at 80°C for 10 minutes was placed in each well in an amount of 300 µl/well. The immunoplate was left to stand at 4°C for 3 hours, and then the solution in each well was removed by aspiration.
After preliminarily allowing each compound to react with VLA-4-IgG chimeric protein (100 µl) at room temperature for 20 minutes, the resulting solution was allowed to react with CS-1 peptide in each well at 30°C for 3 hours. Thereafter, non-bound VLA-4-IgG chimeric protein was removed by aspiration and each well was washed twice with 0.1% BSA-containing TBS buffer (150 mM NaCl,25 mM Tris-HCI, 1 mM MnCl2 pH 7.4). To the bound VLA-4-IgG chimeric protein, biotin-labeled anti-human IgG antibody (Vector) as an primary antibody was added, and then avidin-labeled horse radish peroxidase (Sigma) as a secondary antibody was added, and the reaction was allowed to occur. After the reaction, o-phenylenediamine as a substrate was added to color the solution, and the absorbance at 490 nm was measured. From the absorbance, the binding-inhibition activity of each test compound was determined.

[1] = binding of VLA-4-IgG chimeric protein to immobilized CS-1 peptide, compound preincubated 20 minutes, read-out: Inhibition Activity(IC50 : nM)

VLA-4-IgG chimeric protein, sequence (P13612 with tags, fused parts or gaps limits assumed): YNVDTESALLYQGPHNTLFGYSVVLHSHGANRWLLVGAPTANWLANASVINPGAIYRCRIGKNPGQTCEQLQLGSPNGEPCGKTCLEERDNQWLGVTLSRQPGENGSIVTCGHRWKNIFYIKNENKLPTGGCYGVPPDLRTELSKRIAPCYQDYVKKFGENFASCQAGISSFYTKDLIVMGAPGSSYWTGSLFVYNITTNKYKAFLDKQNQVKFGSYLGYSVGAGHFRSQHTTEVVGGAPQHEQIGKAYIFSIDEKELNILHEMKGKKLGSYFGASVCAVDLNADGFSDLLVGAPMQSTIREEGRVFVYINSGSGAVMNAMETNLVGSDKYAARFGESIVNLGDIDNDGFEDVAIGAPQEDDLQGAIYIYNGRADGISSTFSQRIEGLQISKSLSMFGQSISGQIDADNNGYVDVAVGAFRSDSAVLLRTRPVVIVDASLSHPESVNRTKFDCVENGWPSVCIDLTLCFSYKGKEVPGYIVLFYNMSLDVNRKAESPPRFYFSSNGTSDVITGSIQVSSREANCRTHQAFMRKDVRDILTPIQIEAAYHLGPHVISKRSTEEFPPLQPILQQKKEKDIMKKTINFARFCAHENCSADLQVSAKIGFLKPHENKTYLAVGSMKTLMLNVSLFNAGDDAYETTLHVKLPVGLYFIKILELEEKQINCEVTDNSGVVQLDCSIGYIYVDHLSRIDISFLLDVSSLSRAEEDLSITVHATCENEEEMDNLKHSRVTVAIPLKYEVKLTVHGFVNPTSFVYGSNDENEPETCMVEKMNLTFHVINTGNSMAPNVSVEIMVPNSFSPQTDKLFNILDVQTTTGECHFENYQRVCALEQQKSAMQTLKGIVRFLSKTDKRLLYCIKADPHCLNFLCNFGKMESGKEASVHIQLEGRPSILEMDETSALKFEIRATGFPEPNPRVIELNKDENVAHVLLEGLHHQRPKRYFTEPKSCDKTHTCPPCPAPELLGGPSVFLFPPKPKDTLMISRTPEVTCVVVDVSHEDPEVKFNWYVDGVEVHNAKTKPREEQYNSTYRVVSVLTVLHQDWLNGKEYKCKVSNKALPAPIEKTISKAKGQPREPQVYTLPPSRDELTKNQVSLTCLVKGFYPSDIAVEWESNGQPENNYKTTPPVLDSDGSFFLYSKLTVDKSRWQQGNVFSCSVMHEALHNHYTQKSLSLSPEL
VLA-4-IgG chimeric protein, sequence (P05556 with tags, fused parts or gaps limits assumed): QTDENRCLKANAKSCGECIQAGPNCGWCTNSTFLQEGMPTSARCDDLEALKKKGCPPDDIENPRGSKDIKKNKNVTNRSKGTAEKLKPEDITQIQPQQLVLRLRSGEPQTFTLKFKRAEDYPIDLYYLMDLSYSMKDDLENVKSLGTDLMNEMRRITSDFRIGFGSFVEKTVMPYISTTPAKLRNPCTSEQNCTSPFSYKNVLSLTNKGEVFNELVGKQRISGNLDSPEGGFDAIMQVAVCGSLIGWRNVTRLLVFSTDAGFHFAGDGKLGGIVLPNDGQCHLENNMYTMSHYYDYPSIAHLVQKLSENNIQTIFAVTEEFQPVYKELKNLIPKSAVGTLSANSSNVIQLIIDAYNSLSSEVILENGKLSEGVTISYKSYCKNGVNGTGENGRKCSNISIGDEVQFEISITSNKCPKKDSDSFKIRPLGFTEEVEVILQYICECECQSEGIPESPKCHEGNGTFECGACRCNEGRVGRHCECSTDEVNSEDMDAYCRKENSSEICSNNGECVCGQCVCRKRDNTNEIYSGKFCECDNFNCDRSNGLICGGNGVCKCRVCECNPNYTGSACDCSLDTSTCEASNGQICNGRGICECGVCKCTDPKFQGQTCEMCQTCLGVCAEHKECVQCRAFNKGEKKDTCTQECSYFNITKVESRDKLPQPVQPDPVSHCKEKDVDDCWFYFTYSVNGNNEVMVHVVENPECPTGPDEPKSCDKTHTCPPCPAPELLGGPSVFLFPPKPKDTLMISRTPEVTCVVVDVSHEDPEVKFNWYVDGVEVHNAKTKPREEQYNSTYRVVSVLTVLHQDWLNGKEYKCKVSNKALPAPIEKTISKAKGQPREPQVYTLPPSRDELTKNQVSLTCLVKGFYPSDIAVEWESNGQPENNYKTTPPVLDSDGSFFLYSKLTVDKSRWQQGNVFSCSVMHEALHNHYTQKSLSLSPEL

| Compound | IC50 [1] [nM] | IC50 [nM] |
| --- | --- | --- |
| 3-((2(R)-((1-acetyl-3(R,S)-(4-hydroxyphenyl)pyrrolidin-2(R,S)-yl)carbonylamino)-2(R)-carbonylethyl)disulfanyl)-2(R)-(3,3-dimethylbutanoylamino)propionic acid [Example 74] | 120 | – |
| CC(C)CC(C(=O)NC(Cc1ccc(CCC(=O)O)cc1)C(=O)O)c1ccc(O)cc1 (single isomer, unassigned) [Example 120, 3-(4-(2-carboxyethyl)phenyl)-2-(2-(4-hydroxyphenyl)-4-methylpentanoylamino)propionic acid] | 160 | – |
| CC(C)CC(C(=O)N[C@@H](CCSC[C@H](NC(=O)C(CC(C)C)c1ccc(O)cc1)C(=O)O)C(=O)O)c1ccc(O)cc1 (stereo partly drawn) [Example 8, 4-(2(R)-carboxy-2(R)-(2(R,S)-(4-hydroxyphenyl)-4-methylpentanoylamino)ethylthio)-2(S)-(2(R,S)-(4-hydroxyphenyl)-4-methylpentanoylamino) butyric acid] | – | 200 |
| CC(C)CC(C(=O)N[C@@H](CCSC[C@H](NC(=O)CC(C)(C)C)C(=O)O)C(=O)O)c1ccc(O)cc1 (stereo partly drawn) [Example 14, 4-(2(R)-carboxy-2(R)-(3,3-dimethylbutanoylamino)ethylthio)-2(S)-(2(R,S)-(4-hydroxyphenyl)-4-methylpentanoylamino) butyric acid] | – | 500 |
| CC(C)CC(C(=O)NCCCSC[C@H](NC(=O)CC(C)(C)C)C(=O)O)c1ccc(O)cc1 (stereo partly drawn) [Example 19] | – | 500 |
| CC(C)CC(C(=O)N[C@@H](CSSC[C@H](NC(=O)CC(C)(C)C)C(=O)O)C(=O)O)c1ccc(O)cc1 (stereo partly drawn) [Example 62, 3-((2(R)-carboxy-2(R)-(2(R,S)-(4-hydroxyphenyl)-4-methylpentanoylamino)ethyl)disulfanyl)-2(R)-(3,3-dimethylbutanoylamino)propionic acid] | – | 90 |
| CC(C)C[C@H](OCc1ccccc1)C(=O)N[C@@H](Cc1ccc(OCC(C)(C)C)cc1)C(=O)O [Example 102, 2(S)-(4-methyl-2(S)-(phenylmethoxy)pentanoylamino)-3-(4-(2,2-dimethylpropoxy)phenyl)propionic acid] | 500 | – |
| CC(C)CC(NC(=O)CCc1ccc(CC(NC(=O)CC(C)(C)C)C(=O)O)cc1)c1ccc(O)cc1 (stereo not drawn) [Example 131, 3-(4-(2-(N-(1-(4-hydroxyphenyl)-3-methylbutyl)carbamoyl)ethyl)phenyl)-2-(3,3-dimethylbutanoylamino)propionic acid] | 1800 | – |
| O=C(NC(CCCCC(NC(=O)c1c(Cl)cccc1Cl)C(=O)O)C(=O)O)c1c(Cl)cccc1Cl (stereo not drawn) [Example 154, 2,7-bis((2,6-dichlorophenyl)carbonylamino)octanedioic acid] | 430 | – |
| O=C(O)CCc1ccc(C[C@H](NC(=O)c2c(Cl)cccc2Cl)C(=O)O)cc1 [Example 161, 2(S)-2-((2,6-dichlorophenyl)carbonylamino)-3-(4-(2-carbaxyethyl)phenyl)propionic acid] | – | 64 |
| CC(C)C[C@H](NC(=O)Cc1ccc(NC(=O)Nc2ccccc2)cc1)C(=O)N[C@@H](Cc1ccc(CCC(=O)O)cc1)C(=O)O [Example 171, (2S)-2-((2S)-4-methyl-2-(2-(4-((phenylamino)carbonylamino)phenyl)acetylamino)pentanoylamino)-3-(4-(2-carboxyethyl)phenyl)propionic acid] | 780 | – |
| CC(C)C[C@H](NC(=O)Cc1ccc(NC(=O)Nc2ccccc2)cc1)C(=O)N[C@@H](CCSC[C@H](NC(=O)CC(C)(C)C)C(=O)O)C(=O)O [Example 176, 4-((2R)-2-(3,3-dimethylbutanoylamino)-2-carboxyethylthio)-(2S)-2-((2S)-4-methyl-2-(2-(4-((phenylamino)carbonylamino)phenyl)acetylamino)pentanoylamino)butyric acid] | 13 | – |
